Measurements from patent US9085576B2 (AMGEN INC., priority 2013, dated 2015).

What was measured:
[1] = target: Beta Secretase enzyme (BACE) (Homo sapiens (Human), UniProt P56817); assay: In vitro enzymatic BACE FRET assay; type: biochemical; settings: read-out: BACE1 Enzyme assay IC50
Cathepsin D (Cat D) = Cathepsin D (Cat D) (Homo sapiens (Human), UniProt P07339); assay: In vitro enzymatic Cathepsin D (Cat D) FRET assay; type: biochemical; settings: read-out: CatD IC50
Chain of Cathepsin D (Cat D) (P07339 65-412, species assumed): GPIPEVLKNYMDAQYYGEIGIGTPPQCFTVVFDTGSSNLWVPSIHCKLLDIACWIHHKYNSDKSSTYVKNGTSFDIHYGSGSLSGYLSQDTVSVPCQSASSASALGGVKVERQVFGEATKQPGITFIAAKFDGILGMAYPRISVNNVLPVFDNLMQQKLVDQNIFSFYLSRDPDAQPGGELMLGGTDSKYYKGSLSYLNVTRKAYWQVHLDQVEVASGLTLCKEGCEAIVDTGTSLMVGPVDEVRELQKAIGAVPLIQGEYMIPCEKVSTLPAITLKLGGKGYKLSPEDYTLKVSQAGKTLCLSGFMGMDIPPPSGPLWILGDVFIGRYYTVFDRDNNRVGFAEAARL

Chain of Beta Secretase enzyme (BACE) (P56817 46-501): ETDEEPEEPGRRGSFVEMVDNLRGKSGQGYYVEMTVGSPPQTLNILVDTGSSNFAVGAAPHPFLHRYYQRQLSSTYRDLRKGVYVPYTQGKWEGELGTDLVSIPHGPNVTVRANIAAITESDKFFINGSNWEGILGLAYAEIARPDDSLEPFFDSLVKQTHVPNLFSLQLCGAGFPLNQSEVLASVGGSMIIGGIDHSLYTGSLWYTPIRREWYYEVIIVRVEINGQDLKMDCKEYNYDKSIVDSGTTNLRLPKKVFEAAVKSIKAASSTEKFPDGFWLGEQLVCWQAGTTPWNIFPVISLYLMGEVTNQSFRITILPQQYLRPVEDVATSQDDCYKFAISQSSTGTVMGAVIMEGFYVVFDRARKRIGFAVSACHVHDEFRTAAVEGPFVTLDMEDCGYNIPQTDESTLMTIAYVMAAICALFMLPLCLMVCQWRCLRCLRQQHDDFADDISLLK

| IC50 [1] [µM] | IC50 (Cathepsin D (Cat D)) [µM] | Compound |
| --- | --- | --- |
| 8.62 | 316 | NC1=N[C@@](c2cc(-n3cc(C#CC4CC4)cn3)ccc2F)(C(F)F)[C@H]2C[C@H]2O1 [Example 435] |
| 0.701 | 493 | C#CCOc1cnc(C(=O)Nc2ccc(Cl)c([C@]3(C(F)F)N=C(N)O[C@H]4C[C@H]43)c2)cn1 [Example 222, N-(3-((1S,5R,6S)-3-amino-5-(difluoromethyl)-2-oxa-4-azabicyclo[4.1.0]hept-3-en-5-yl)-4-chlorophenyl)-5-(prop-2-yn-1-yloxy)pyrazine-2-carboxamide] |
| 0.0063 | 65.8 | C#CCOc1cnc(C(=O)Nc2ccc(Cl)c([C@]3(C(F)F)N=C(N)O[C@H]4C[C@H]43)c2)cn1 (racemic) [Example 219, N-(3-((1(S,R),5(R,S),6(S,R))-3-amino-5-(difluoromethyl)-2-oxa-4-azabicyclo[4.1.0]hept-3-en-5-yl)-4-chlorophenyl)-5-(prop-2-yn-1-yloxy)pyrazine-2-carboxamide] |
| 0.838 | 500 | CC#CCOc1cnc(C(=O)Nc2ccc(Cl)c([C@]3(C(F)F)N=C(N)O[C@H]4C[C@H]43)c2)cn1 [Example 216, N-(3-((1S,5R,6S)-3-amino-5-(difluoromethyl)-2-oxa-4-azabicyclo[4.1.0]hept-3-en-5-yl)-4-chlorophenyl)-5-(but-2-yn-1-yloxy)pyrazine-2-carboxamide] |
| 8.27 | 1340 | NC1=N[C@](c2cc(NC(=O)c3nn(C(F)F)cc3Cl)ccc2Cl)(C(F)F)[C@@H]2C[C@@H]2O1 [Example 225, N-(3-((1S,5R,6S)-3-amino-5-(difluoromethyl)-2-oxa-4-azabicyclo[4.1.0]hept-3-en-5-yl)-4-chlorophenyl)-4-chloro-1-(difluoromethyl)-1H-pyrazole-3-carboxamide] |
| 6.5 | 1000 | C#CCOc1cnc(C(=O)Nc2cc(F)c(F)c([C@@]3(C(F)F)N=C(N)O[C@@H]4C[C@@H]43)c2)cn1 [Example 111, N-(3-((1R,5S,6R)-3-amino-5-(difluoromethyl)-2-oxa-4-azabicyclo[4.1.0]hept-3-en-5-yl)-4,5-difluorophenyl)-5-(prop-2-yn-1-yloxy)pyrazine-2-carboxamide] |
| 0.525 | 1060 | NC1=N[C@@](c2cccc(NC(=O)c3ccc(Cl)cn3)c2)(C(F)F)[C@H]2C[C@H]2O1 [Example 263, N-(3-([(1R,S),(5S,R),(6R,S)]-3-amino-5-(difluoromethyl)-2-oxa-4-azabicyclo[4.1.0]hept-3-en-5-yl)phenyl)-5-chloropicolinamide] |
| 3.35 | > 400 | COc1cnc2c(Nc3ccc(F)c([C@@]4(C)N=C(N)O[C@H]5C[C@H]54)c3)nccc2c1 [Example 337, (1S,5S,6S)-5-(2-fluoro-5-((3-methoxy-1,7-naphthyridin-8-yl)amino)phenyl)-5-methyl-2-oxa-4-azabicyclo[4.1.0]hept-3-en-3-amine] |
| 0.0188 | 691 | NC1=N[C@](c2cc(NC(=O)c3nn(C(F)F)cc3Cl)ccc2Cl)(C(F)F)[C@@H]2C[C@@H]2O1 (racemic) [Example 220, N-(3-((1(R,S),5(S,R),6(R,S))-3-amino-5-(difluoromethyl)-2-oxa-4-azabicyclo[4.1.0]hept-3-en-5-yl)-4-chlorophenyl)-4-chloro-1-(difluoromethyl)-1H-pyrazole-3-carboxamide] |
| > 40 | 1290 | C[C@@]1(c2nc(NC(=O)c3ccc(C#N)cn3)ccc2F)N=C(N)O[C@H]2C[C@H]21 [Example 325, N-(6-((1S,5R,6S)-3-amino-5-methyl-2-oxa-4-azabicyclo[4.1.0]hept-3-en-5-yl)-5-fluoropyridin-2-yl)-5-cyanopicolinamide] |

| Compound | IC50 [1] [µM] | IC50 (Cathepsin D (Cat D)) [µM] |
| --- | --- | --- |
| N#Cc1cnc2c(Nc3ccc(Cl)c([C@]4(C(F)F)N=C(N)O[C@H]5C[C@H]54)c3)ncc(F)c2c1 [Example 351, 8-((3-((1S,5R,6S)-3-amino-5-(difluoromethyl)-2-oxa-4-azabicyclo[4.1.0]hept-3-en-5-yl)-4-chlorophenyl)amino)-5-fluoro-1,7-naphthyridine-3-carbonitrile] | 2.81 | > 14.8 |
| NC1=N[C@@](c2cc(N[C@H]3CCCc4cc(Br)cnc43)ccc2F)(C(F)F)[C@H]2C[C@H]2O1 (mixture of isomers) [Example 382, (1R,5S,6R)-5-(5-(((R)-3-bromo-5,6,7,8-tetrahydroquinolin-8-yl)amino)-2-fluorophenyl)-5-(difluoromethyl)-2-oxa-4-azabicyclo[4.1.0]hept-3-en-3-amine and (1R,5S,6R)-5-(5-(((S)-3-bromo-5,6,7,8-tetrahydroquinolin-8-yl)amino)-2-fluorophenyl)-5-(difluoromethyl)-2-oxa-4-azabicyclo[4.1.0]hept-3-en-3-amine] | 3.07 | 263 |
| CC#Cc1cncc(-c2cc([C@]3(CF)N=C(N)O[C@H]4C[C@H]43)c(F)cc2CO)c1 [Example 432, (4-(((1S,R),(5R,S),(6S,R))-3-amino-5-(fluoromethyl)-2-oxa-4-azabicyclo[4.1.0]hept-3-en-5-yl)-5-fluoro-2-(5-(prop-1-yn-1-yl)pyridin-3-yl)phenyl)methanol] | 33.1 | 178 |
| N-(3-((1R,5S,6R)-3- amino-5- (difluoromethyl)-2-oxa- 4-azabicyclo[4.1.0]hept- 3-en-5-yl)-4-fluoro-5- methylphenyl)-4-chloro- 2-(fluoromethyl) benzamide [Example 444] | 0.0105 | 171 |
| NC1=N[C@@](c2cc(N[C@@H]3CCc4cc(Br)ccc43)ccc2F)(C(F)F)[C@H]2C[C@H]2O1.NC1=N[C@@](c2cc(N[C@H]3CCc4cc(Br)ccc43)ccc2F)(C(F)F)[C@H]2C[C@H]2O1 (mixture of isomers) [Example 384, (1R,5S,6R)-5-(5-(((R)-5-bromo-2,3-dihydro-1H-inden-1-yl)amino)-2-fluorophenyl)-5-(difluoromethyl)-2-oxa-4-azabicyclo[4.1.0]hept-3-en-3-amine and (1R,5S,6R)-5-(5-(((S)-5-bromo-2,3-dihydro-1H-inden-1-yl)amino)-2-fluorophenyl)-5-(difluoromethyl)-2-oxa-4-azabicyclo[4.1.0]hept-3-en-3-amine] | 0.315 | 82.5 |
| NC1=N[C@@](c2cc(N[C@@H]3CCc4cc(Br)cnc43)ccc2F)(C(F)F)[C@H]2C[C@H]2O1 (single isomer, unassigned) [Example 380, (1R,5S,6R)-5-(5-(((R)-3-bromo-6,7-dihydro-5H-cyclopenta[b]pyridin-7-yl)amino)-2-fluorophenyl)-5-(difluoromethyl)-2-oxa-4-azabicyclo[4.1.0]hept-3-en-3-amine or (1R,5S,6R)-5-(5-(((S)-3-bromo-6,7-dihydro-5H-cyclopenta[b]pyridin-7-yl)amino)-2-fluorophenyl)-5-(difluoromethyl)-2-oxa-4-azabicyclo[4.1.0]hept-3-en-3-amine] | 0.143 | 336 |
| N#Cc1cnc2c(Nc3ccc(Cl)c([C@]4(C(F)F)N=C(N)O[C@H]5C[C@H]54)c3)ncc(F)c2c1 [Example 349, 8-((3-((1(R,S),5(S,R),6(R,S))-3-amino-5-(difluoromethyl)-2-oxa-4-azabicyclo[4.1.0]hept-3-en-5-yl)-4-chlorophenyl)amino)-5-fluoro-1,7-naphthyridine-3-carbonitrile] | 0.0829 | 88.4 |
